Measurements as given in the OligoGym collection.
Oligonucleotides are written 5' to 3', each unit as a sugar letter and its base; * is a phosphorothioate linkage, no mark a phosphodiester; rarer units and linkages stand in square brackets, end groups in braces. Plain capitals give the bases only. Oligonucleotides are given in HELM: sugar(base)linkage, 5' to 3'; d 2'-deoxyribose, r ribose, m 2'-O-methylribose, p phosphate. ss, as = sense and antisense strand; d = 2'-deoxy (DNA); r = 2'-OH (RNA)

molecular target: MRFAP1; assay: reporter assay of Huesken 2005; settings: siRNA
Further: test concentration or dose not given here.

Point of comparison: “sense rArGrCrUrCrGrUrGrCrGrGrCrGrGrArUrArGrAdTdT / antisense rUrCrUrArUrCrCrGrCrCrGrCrArCrGrArGrCrUdGdC”, normalised inhibition (eCFP-eYFP dual reporter) 79.7%. Against it:
- sense rArArArArUrArArCrUrUrUrGrArUrUrUrGrGrAdTdT / antisense rUrCrCrArArArUrCrArArArGrUrUrArUrUrUrUdCdC — lower, 69.9%
- sense rArArArArUrCrUrUrArCrArUrGrUrUrArArUrAdTdT / antisense rUrArUrUrArArCrArUrGrUrArArGrArUrUrUrUdGdT — lower, 76.5%
- sense rArArArCrUrUrCrArArGrGrArArGrArGrGrCrGdTdT / antisense rCrGrCrCrUrCrUrUrCrCrUrUrGrArArGrUrUrUdTdG — lower, 66.3%
- sense rArArArGrCrArGrCrGrGrArGrArUrGrCrGrGrCdTdT / antisense rGrCrCrGrCrArUrCrUrCrCrGrCrUrGrCrUrUrUdGdC — lower, 35.6%
- sense rArArArUrArArCrUrUrUrGrArUrUrUrGrGrArAdTdT / antisense rUrUrCrCrArArArUrCrArArArGrUrUrArUrUrUdTdC — lower, 70.2%
- sense rArArArUrUrUrUrArUrGrUrGrCrUrArCrArCrUdTdT / antisense rArGrUrGrUrArGrCrArCrArUrArArArArUrUrUdAdA — lower, 46.8%
- sense rArArCrCrUrGrCrCrUrGrArUrGrArGrUrUrUrGdTdT / antisense rCrArArArCrUrCrArUrCrArGrGrCrArGrGrUrUdAdT — lower, 52%
- sense rArArCrUrUrUrGrArUrUrUrGrGrArArArArUrGdTdT / antisense rCrArUrUrUrUrCrCrArArArUrCrArArArGrUrUdAdT — lower, 50.3%
- sense rArArCrUrUrUrGrGrGrUrCrCrCrUrGrUrGrArCdTdT / antisense rGrUrCrArCrArGrGrGrArCrCrCrArArArGrUrUdCdA — lower, 26.8%
- sense rArArGrArUrGrGrCrCrGrArGrArUrGrCrUrGrGdTdT / antisense rCrCrArGrCrArUrCrUrCrGrGrCrCrArUrCrUrUdCdG — lower, 33.1%
- sense rArArGrCrArGrCrGrGrArGrArUrGrCrGrGrCrCdTdT / antisense rGrGrCrCrGrCrArUrCrUrCrCrGrCrUrGrCrUrUdTdG — lower, 42.8%
- sense rArArGrGrCrCrGrArCrGrArGrArArGrGrCrGrCdTdT / antisense rGrCrGrCrCrUrUrCrUrCrGrUrCrGrGrCrCrUrUdCdT — lower, 63.1%
- sense rArArGrGrUrUrCrArUrArUrGrUrArGrUrCrArAdTdT / antisense rUrUrGrArCrUrArCrArUrArUrGrArArCrCrUrUdGdA — higher, 85.4%
- sense rArCrArArGrCrArArArGrCrArGrCrGrGrArGrAdTdT / antisense rUrCrUrCrCrGrCrUrGrCrUrUrUrGrCrUrUrGrUdCdT — lower, 62.6%
- sense rArCrCrUrGrArUrArArGrCrArUrUrUrGrArGrGdTdT / antisense rCrCrUrCrArArArUrGrCrUrUrArUrCrArGrGrUdCdT — lower, 46.8%
- sense rArCrCrUrGrArUrArGrCrUrCrCrCrUrGrArArCdTdT / antisense rGrUrUrCrArGrGrGrArGrCrUrArUrCrArGrGrUdCdA — lower, 68.5%
- sense rArCrCrUrGrGrGrArGrArArGrGrGrUrCrGrGrAdTdT / antisense rUrCrCrGrArCrCrCrUrUrCrUrCrCrCrArGrGrUdCdA — lower, 77.6%
- sense rArCrGrArCrCrUrCrGrArUrArUrGrArGrUrUrUdTdT / antisense rArArArCrUrCrArUrArUrCrGrArGrGrUrCrGrUdCdA — lower, 70%
- sense rArCrGrCrArGrUrGrGrArGrCrUrGrGrCrGrGrAdTdT / antisense rUrCrCrGrCrCrArGrCrUrCrCrArCrUrGrCrGrUdCdC — lower, 76.4%
- sense rArCrUrArUrCrUrArUrUrArUrArArCrCrUrGrCdTdT / antisense rGrCrArGrGrUrUrArUrArArUrArGrArUrArGrUdGdT — lower, 42.2%
- sense rArCrUrCrGrGrCrCrCrGrArGrCrUrCrGrGrUrCdTdT / antisense rGrArCrCrGrArGrCrUrCrGrGrGrCrCrGrArGrUdCdT — lower, 61.5%
- sense rArCrUrGrArGrArCrUrUrGrGrArGrUrUrGrGrAdTdT / antisense rUrCrCrArArCrUrCrCrArArGrUrCrUrCrArGrUdGdT — higher, 88.7%
- sense rArCrUrUrCrArArGrGrArArGrArGrGrCrGrUrCdTdT / antisense rGrArCrGrCrCrUrCrUrUrCrCrUrUrGrArArGrUdTdT — higher, 82.5%
- sense rArCrUrUrCrGrArGrCrArGrUrUrUrCrUrGrCrUdTdT / antisense rArGrCrArGrArArArCrUrGrCrUrCrGrArArGrUdCdC — lower, 51.4%
- sense rArGrArGrGrCrCrUrCrUrGrArGrGrArGrArGrCdTdT / antisense rGrCrUrCrUrCrCrUrCrArGrArGrGrCrCrUrCrUdAdC — lower, 69.3%
- sense rArGrGrGrCrGrGrArGrArArGrGrCrCrGrArCrGdTdT / antisense rCrGrUrCrGrGrCrCrUrUrCrUrCrCrGrCrCrCrUdGdG — lower, 23.9%
- sense rArGrGrUrCrArArArArCrCrCrUrUrArCrCrArUdTdT / antisense rArUrGrGrUrArArGrGrGrUrUrUrUrGrArCrCrUdCdA — higher, 85.7%
- sense rArGrUrGrArUrGrGrCrGrArUrUrGrGrCrUrGrAdTdT / antisense rUrCrArGrCrCrArArUrCrGrCrCrArUrCrArCrUdCdA — higher, 85.8%
- sense rArGrUrUrUrCrUrGrCrUrGrCrCrCrGrUrCrArUdTdT / antisense rArUrGrArCrGrGrGrCrArGrCrArGrArArArCrUdGdC — lower, 66.2%
- sense rArUrCrCrUrUrGrCrArArUrArCrCrCrUrUrUrGdTdT / antisense rCrArArArGrGrGrUrArUrUrGrCrArArGrGrArUdCdT — lower, 66.3%
- sense rArUrGrGrCrGrArArGrArUrGrGrCrCrGrArGrAdTdT / antisense rUrCrUrCrGrGrCrCrArUrCrUrUrCrGrCrCrArUdCdT — lower, 78.7%
- sense rCrArArArArCrCrCrUrUrArCrCrArUrGrUrUrGdTdT / antisense rCrArArCrArUrGrGrUrArArGrGrGrUrUrUrUrGdAdC — lower, 70.3%
- sense rCrArArArGrGrArGrGrArGrArGrArUrGrUrArUdTdT / antisense rArUrArCrArUrCrUrCrUrCrCrUrCrCrUrUrUrGdGdT — higher, 99.2%
- sense rCrArArGrArCrGrCrArGrGrUrArGrArGrGrCrCdTdT / antisense rGrGrCrCrUrCrUrArCrCrUrGrCrGrUrCrUrUrGdAdT — lower, 73.2%
- sense rCrArArGrUrUrGrGrUrArUrCrCrCrCrArUrArUdTdT / antisense rArUrArUrGrGrGrGrArUrArCrCrArArCrUrUrGdTdA — lower, 62.5%
- sense rCrArCrCrCrUrGrGrArGrArArGrCrUrGrArArAdTdT / antisense rUrUrUrCrArGrCrUrUrCrUrCrCrArGrGrGrUrGdTdC — lower, 66.7%
- sense rCrArCrUrArCrGrUrUrUrCrUrGrCrUrArUrGrGdTdT / antisense rCrCrArUrArGrCrArGrArArArCrGrUrArGrUrGdTdC — lower, 58%
- sense rCrArCrUrGrArGrArCrUrUrGrGrArGrUrUrGrGdTdT / antisense rCrCrArArCrUrCrCrArArGrUrCrUrCrArGrUrGdTdC — lower, 77.6%
- sense rCrArGrGrArGrArUrGrGrCrGrArArGrArUrGrGdTdT / antisense rCrCrArUrCrUrUrCrGrCrCrArUrCrUrCrCrUrGdCdG — higher, 81.9%
- sense rCrArUrArUrGrUrArGrUrCrArArGrCrUrArUrAdTdT / antisense rUrArUrArGrCrUrUrGrArCrUrArCrArUrArUrGdAdA — higher, 101%
- sense rCrArUrGrCrArGrCrArArUrGrGrCrArGrArArGdTdT / antisense rCrUrUrCrUrGrCrCrArUrUrGrCrUrGrCrArUrGdGdA — lower, 79.1%
- sense rCrCrArGrArGrArGrCrCrUrUrUrGrUrUrUrUrCdTdT / antisense rGrArArArArCrArArArGrGrCrUrCrUrCrUrGrGdTdT — higher, 89.6%
- sense rCrCrCrArGrGrGrCrGrGrArGrArArGrGrCrCrGdTdT / antisense rCrGrGrCrCrUrUrCrUrCrCrGrCrCrCrUrGrGrGdGdC — lower, 65.6%

molecular target: TMEM63B; assay: reporter assay of Huesken 2005; settings: siRNA

Point of comparison: “RNA1{r(U)p.r(U)p.r(G)p.r(C)p.r(U)p.r(G)p.r(A)p.r(U)p.r(G)p.r(C)p.r(C)p.r(A)p.r(C)p.r(C)p.r(C)p.r(G)p.r(A)p.r(C)p.r(G)p.d(T)p.d(T)}|RNA2{r(C)p.r(G)p.r(U)p.r(C)p.r(G)p.r(G)p.r(G)p.r(U)p.r(G)p.r(G)p.r(C)p.r(A)p.r(U)p.r(C)p.r(A)p.r(G)p.r(C)p.r(A)p.r(A)p.d(C)p.d(T)}$$$RNA1{StrandType:ss}|RNA2{StrandType:as}$”, normalised inhibition (eCFP-eYFP dual reporter) 39.7%. Against it:
- RNA1{r(U)p.r(U)p.r(A)p.r(U)p.r(C)p.r(G)p.r(G)p.r(C)p.r(A)p.r(A)p.r(C)p.r(G)p.r(C)p.r(C)p.r(A)p.r(U)p.r(G)p.r(G)p.r(A)p.d(T)p.d(T)}|RNA2{r(U)p.r(C)p.r(C)p.r(A)p.r(U)p.r(G)p.r(G)p.r(C)p.r(G)p.r(U)p.r(U)p.r(G)p.r(C)p.r(C)p.r(G)p.r(A)p.r(U)p.r(A)p.r(A)p.d(A)p.d(G)}$$$RNA1{StrandType:ss}|RNA2{StrandType:as}$ — higher, 62.7%
- RNA1{r(U)p.r(U)p.r(U)p.r(A)p.r(U)p.r(C)p.r(G)p.r(G)p.r(C)p.r(A)p.r(A)p.r(C)p.r(G)p.r(C)p.r(C)p.r(A)p.r(U)p.r(G)p.r(G)p.d(T)p.d(T)}|RNA2{r(C)p.r(C)p.r(A)p.r(U)p.r(G)p.r(G)p.r(C)p.r(G)p.r(U)p.r(U)p.r(G)p.r(C)p.r(C)p.r(G)p.r(A)p.r(U)p.r(A)p.r(A)p.r(A)p.d(G)p.d(G)}$$$RNA1{StrandType:ss}|RNA2{StrandType:as}$ — lower, 36.7%
